From patent publication US10759754B2, “Aminobenzoic acid derivatives for use as anti-inflammatory agents, anti-metastatic agents and/or anticancer agents” (3R VALO, S.E.C., priority 2016, dated 2020)
Entries after “also recorded” stand apart in the source; their conditions may differ.

Columns and labels:
[1] = system: peritoneal macrophages; assay: NO and urea production in peritoneal macrophages after in vivo treatment of MB49 tumor-bearing mice; conditions: treatment at 90 and 150 μM; macrophages recovered day 26
Protocol: Evaluation of NO and Urea production by chemical methods. The MB49-I cells and the J774A.1 cells (25×10^3 cells/well) were grown and pretreated, as indicated, with various anti-inflammatory derivatives, precursors and mono-functional derivatives for a period of 3 h. Afterwards the cells were washed twice with 10% FBS RPMI-1640 and then activated to produce NO for a period of 24 h with cytokines INFγ and TNFα. NO production was measured using the Griess reagent method as previously described.^27 This method involves the detection of nitrite ions (NO2^−) formed by the spontaneous oxidation of NO under physiological conditions. […] In the presence of NO2^−, sulfanilic acid is converted to a diazonium salt, which in turn is coupled to N-(1-naphthyl)ethylenediamine to produce a pink coloration that is measured with a spectrophotometer (Biotek, synergy HT) at 548 nm. In the same manner, urea synthesis through arginase-1 activity was measured using commercially available kit.
Ectopic UBC model. […] Growth rates of the s.c. tumors were monitored. The size of tumors was determined every 3 days for 24-28 days using a digital caliper and by measuring luciferin luminescence at days 15 and 25 using the IVIS imaging system. A blinded observer measured tumor length and width. […]

[2] = system: MB49 cells; assay: Relative cell viability of MB49 cells 24-hour post treatment; type: cell-based, murine; conditions: 3 h treatment, 0-50 μM
Protocol: (§1) Evaluation of cell proliferation by the MTT assay. […] Cells were pretreated for a period of 3 h with vehicle (DMSO) or derivatives 1 and 1A at 0, 10, 25, 37.5, and 50 μM, and then incubated for 24 h in the absence or the presence of INFγ and TNFα. At the end of the culture period, 10 μL of 5 mg/mL methylthiazolyldiphenyl-tetrazolium bromide (MTT) solution was added to each well. After a 3-h incubation period with MTT reagent, 100 μL of MTT solubilization buffer (10% SDS in 10 mM HCl) was added and plates were placed overnight in the cell incubator before absorbance measure. The optical density was read at 580 nm using the Microplate Reader Manager (from Bio-Rad Laboratories).

[3] = system: MB49-I cells; assay: Relative cell viability of MB49-I cells 24-hour post treatment; type: cell-based, murine; conditions: 3 h treatment, 0-50 μM
Protocol: as §1

[4] = system: MB49-I cells; assay: LPS/IFNγ-induced NO production in MB49-I cells; type: cell-based, murine; conditions: compound 4 at 30 μM, compound 12 at 10, 20, 37.5 and 50 μM
Protocol: Evaluation of NO and Urea production by chemical methods. The MB49-I cells and the J774A.1 cells (25×10^3 cells/well) were grown and pretreated, as indicated, with various anti-inflammatory derivatives, precursors and mono-functional derivatives for a period of 3 h. […] NO production was measured using the Griess reagent method as previously described.^27 This method involves the detection of nitrite ions (NO2^−) formed by the spontaneous oxidation of NO under physiological conditions. According the manufacture procedure (Life Technologies; # G-7921), equal volumes of sulfanilic acid and N-(1-naphthyl)ethylenediamine are mixed together to form the Griess reagent. In the presence of NO2^−, sulfanilic acid is converted to a diazonium salt, which in turn is coupled to N-(1-naphthyl)ethylenediamine to produce a pink coloration that is measured with a spectrophotometer (Biotek, synergy HT) at 548 nm. In the same manner, urea synthesis through arginase-1 activity was measured using commercially available kit.

[5] = system: C57Bl/6J mice; assay: Acute toxicity study with episodic i.p. injections in C57Bl/6J mice; type: in vivo
[6] = system: IL6/STAT3 signaling pathway; assay: Western blot of IL6/STAT3 signaling in MB49-I cells; type: cell-based, murine; conditions: doses as lower as 10 μM
Protocol: (§2) Cell signaling studies: THP1-derived human macrophages (750×10^3 cells/mL) and MB49-I cells (500×10^3 cells/mL) were pretreated for 30 min with vehicle (DMSO), compounds 4 and 5, at 10, 25 or 50 μM; and then washed and recovered immediately (t=0 min) or after 30 min of activation with 50 U/mL IFNγ, 25 ng/mL IL6, or 10 ng/mL TNFα. Cell lysates were prepared and analyzed by immunoblotting as described.^21-23,25 Briefly, protein samples were resolved by SDS-PAGE under reducing conditions and transferred onto a PVDF membrane. Blots were first probed with rabbit polyclonal antibodies against phospho-STAT1 (pSTAT1), pSTAT3, or p-IκB (all at 1:2000) overnight at 4° C. Blots were then incubated with HRP-conjugated goat anti-rabbit IgG Ab (1:3000) for 1 h at room temperature. The same blots were stripped and then probed with anti-STAT1 or anti-STAT3 Abs (both at 1:1000). In both cases, probed molecules were visualized using an enhancement chemiluminescence detection kit (Thermo Fisher Scientific).

[7] = system: MB49 tumors; assay: Ectopic UBC model, non-muscle invasive MB49 tumors in male mice; type: in vivo; conditions: i.p. 90 and 150 μM
Protocol: (§3) Ectopic UBC model. Male C57BL/6J mice (6-8 weeks old), each weighing 15-18 g, were used for the experiments (supplied by Charles River). The mice were housed with free access to food and water on a 12:12 h light:dark cycle with the room temperature maintained at 21° C. MB49 cells, MB49-I cells, and iNOS-deficient MB49-I cells ([…] in 100 μL PBS) were injected subcutaneously (s.c.) into the right flank of the mice. Growth rates of the s.c. tumors were monitored. The size of tumors was determined every 3 days for 24-28 days using a digital caliper and by measuring luciferin luminescence at days 15 and 25 using the IVIS imaging system. A blinded observer measured tumor length and width. The volume of the tumor was calculated from the formula: Length×width2×0.52, where length and width were tumor diameters measured with calipers in mutually perpendicular directions. At a tumor size of approximately 10 mm^3 the mice were divided into different groups. A control group received PBS as treatment. As indicated, other groups were treated at different doses (90, 150 or 300 μM) with an intraperitoneal (i.p.) injection of compounds 4 or 8 every 3-4 days for 18-20 days.^24,27

[8] = system: STAT1; assay: Western blot of phosphorylated STAT1 in IFNγ-activated human macrophages; type: cell-based; conditions: human macrophages pretreated 30 min at 10 and 50 μM; 30 min activation with 50 U/mL IFNγ
Protocol: as §2

[9] = system: macrophage-like J774A.1 cells; assay: IFNγ/TNFα-induced NO production (Griess) in J774A.1 cells; type: cell-based, murine; conditions: pretreatment then IFNγ and TNFα
Protocol: Evaluation of NO and Urea production by chemical methods. The MB49-I cells and the J774A.1 cells (25×10^3 cells/well) were grown and pretreated, as indicated, with various anti-inflammatory derivatives, precursors and mono-functional derivatives for a period of 3 h. Afterwards the cells were washed twice with 10% FBS RPMI-1640 and then activated to produce NO for a period of 24 h with cytokines INFγ and TNFα. NO production was measured using the Griess reagent method as previously described.^27 This method involves the detection of nitrite ions (NO2^−) formed by the spontaneous oxidation of NO under physiological conditions. According the manufacture procedure (Life Technologies; # G-7921), equal volumes of sulfanilic acid and N-(1-naphthyl)ethylenediamine are mixed together to form the Griess reagent. In the presence of NO2^−, sulfanilic acid is converted to a diazonium salt, which in turn is coupled to N-(1-naphthyl)ethylenediamine to produce a pink coloration that is measured with a spectrophotometer (Biotek, synergy HT) at 548 nm. In the same manner, urea synthesis through arginase-1 activity was measured using commercially available kit.

[10] = system: MB49-I tumors; assay: Ectopic UBC model, MB49-I tumors implanted in the flank of male mice; type: in vivo
Protocol: as §3

[11] = i.p. 0, 90, 150, 300 μM during 3 weeks

CC(C)(C)OC(=O)NNC(=O)c1ccc(N2C(=O)C=CC2=O)cc1 [Compound 4, N′-[4-(2,5-dioxo-2,5-dihydro-pyrrol-1-yl)-benzoyl]-hydrazine carboxylic acid tert-butyl ester]
NO production in peritoneal macrophages [1]: significant decrease; also recorded: significantly decrease | urea synthesis and release in peritoneal macrophages [1]: significant decrease; also recorded: significantly decrease | relative cell viability / cell survival [2]: stopping cell proliferation | relative cell viability / cell survival [3]: stopping cell proliferation | LPS/IFNγ-induced NO synthesis [4]: inhibitory effect | tolerability in mice ([5]; concentrations up to 300 μM): well tolerated | hematocrit [5, 11]: no obvious effect | normal development and viability [5, 11]: no obvious effect | organs weight [5, 11]: no obvious effect | liver histological analysis (hepatocellular injury, inflammation, fibrosis, steatosis) ([5]; i.p. up to 300 μM during 3 weeks): no evidence of toxicity; also recorded: does not induce features of liver dysfunction | IL6/STAT3 signaling pathway (Western blot) [6]: inhibit; also recorded: efficiently inhibited | size of subcutaneously implanted MB49 tumors [7]: significant reduction; also recorded: significantly reduce | IFNγ-induced STAT1 activation (ratio of phosphorylated/no phosphorylated proteins) [8]: decreased; also recorded: efficiently inhibited | combined IFNγ/TNFα-induced NO synthesis [9]: effective in reducing; also recorded: efficiently inhibited | histological examination of lung specimens ([10]; i.p. 150 μM): no metastatic foci | number of lung metastases ([10]; i.p. 150 μM): significant decrease; also recorded: significantly reduce | size of subcutaneously implanted MB49-I tumors ([10]; i.p. 150 μM): significantly reduce | tumor development of MB49-I cells subcutaneously implanted ([10]; i.p. 150 μM): significant decrease; also recorded: significantly affects | tumor volume of muscle-invasive MB49-I tumors ([10]; i.p. 150 μM during 18 days, tumors recovered day 20): anti-proliferative activity
